Experimental findings from ChEMBL document CHEMBL1132733, “7-Methoxybenzofuran-4-carboxamides as PDE 4 inhibitors: a potential treatment for asthma” (Bioorg Med Chem Lett, 2000) are described below.

The target in test [1] is Phosphodiesterase 3 (Homo sapiens) (UniProt Q14432+Q13370). Description: Inhibition of Phosphodiesterase 3 from human platelets. Also noted: concentration or dose not given beside the values. The note with it: concentration not given here.
For test [2], the target named is Phosphodiesterase 4 (Homo sapiens, UniProt P27815+Q08499+Q07343+Q08493). Briefly: Inhibition of Phosphodiesterase 4 from human U937 cells. In kind it is cell-based. To be noted: u-937.
In test [3] the target is T1, Phosphodiesterase 4 (Rattus norvegicus, UniProt P14270+P14646+P14644+P54748). Briefly: Inhibition of rolipram binding in rat brain tissue. In kind it is tissue-based.
Test [4] is described as follows: Relative activity against human Phosphodiesterase type 4 (PDE4) and rat rolipram binding protein (RBA). Also noted: reference not given here.
Test [5] addresses T1, Phosphodiesterase 4. Description: Inhibition of rolipram binding to rat brain tissue. It counts as tissue-based.
The target of test [6] is T1, Phosphodiesterase 4. Briefly: Inhibition of rolipram binding to rat brain tissue at 20 uM. In kind it is tissue-based.

By inhibition is commonly meant how much of the control response was suppressed. Usually IC50 stands for the point on the concentration scale where inhibition reaches its midpoint. The molecule `COc1ccc(C(=O)Nc2c(Cl)cncc2Cl)c2cc(C(C)=O)oc12` displayed an inhibition in test [1] of 32%. Also, the IC50 in test [2] amounted to 1.6 nM.
Take `COc1ccc(C(=O)Nc2c(Cl)cncc2Cl)c2c(C)c(C(C)=O)oc12`: the IC50 in test [2] came out at 320 nM; in test [3], 160 nM.
The molecule `COc1ccc(C(=O)Nc2c(Cl)cncc2Cl)c2cc(CC(C)(C)C)oc12` had an inhibition in test [1] of 34%. The same molecule registered an IC50 in test [2] of 17 nM.
Regarding `COc1ccc(C(=O)Nc2ncccc2C)c2cc(C(C)=O)oc12`, the IC50 was determined as 452 nM in test [2] and 1850 nM in test [3]. In test [4], the Ratio stood at 0.24.
With `COc1ccc(C(=O)Nc2c(Cl)cncc2Cl)c2cc(C(=O)O)oc12`, in test [1], the inhibition is 38%. The IC50 in test [2] was 770 nM.
Take `COc1ccc(C(=O)Nc2c(Cl)cc(C#N)cc2Cl)c2cc(C(C)=O)oc12`: the IC50 is 85.1 nM in test [2] and 228 nM in test [3]. Also, the Ratio in test [4] came to 0.37.
`COc1ccc(C(=O)Nc2ccncc2)c2cc(C(C)=O)oc12`: the figures for the IC50 in test [2] and in test [3] were 120 nM and 250 nM, respectively. Also, the Ratio in test [4] is 0.48.
With `COc1ccc(C(=O)Nc2ccccc2Cl)c2cc(C(C)=O)oc12`, the values for the IC50 in test [2] and in test [5] were 54 nM and 248 nM, respectively. Also, the Ratio in test [4] turned out to be 0.21.
With `COc1ccc(C(=O)Nc2c(Cl)cncc2Cl)c2cc(C(C)O)oc12` (stereo not given), the inhibition in test [1] is 23%. For the same molecule, in test [2], the IC50 is 8.6 nM.
Turning to `CCc1cc2c(C(=O)Nc3c(Cl)cncc3Cl)ccc(OC)c2o1`, the inhibition in test [1] was 46%. In test [2], this molecule showed a 50% inhibitory concentration (IC50) of 27 nM.
As for `COc1ccc(C(=O)Nc2ccncc2Cl)c2cc(C(C)=O)oc12`, the results for the IC50 in test [2] and in test [3] were 6.3 nM and 32 nM, respectively. Moreover, the Ratio in test [4] worked out at 0.197.
On to `COc1ccc(C(=O)Nc2cccnc2Cl)c2cc(C(C)=O)oc12`, for which the half-maximal inhibitory concentration (IC50) was found to be 875 nM in test [2] and 199 nM in test [3]. The Ratio in test [4] turned out to be 4.4.
The molecule `COc1ccc(C(=O)Nc2c(Cl)cncc2Cl)c2cc(C#N)oc12` had an inhibition in test [1] of 31%.
`COc1ccc(C(=O)N(C)c2c(Cl)cncc2Cl)c2cc(C(C)=O)oc12`: the figures for the IC50 in test [2] and in test [3] were 330 nM and 150 nM, respectively.
Turning to `COc1ccc(C(=O)Nc2ncncc2Cl)c2cc(C(C)=O)oc12`, the IC50 worked out at 164 nM in test [2] and 59.6 nM in test [3]. In addition, in test [4], the Ratio was found to be 2.75.
On to `COc1ccc(C(=O)Nc2c(Cl)cncc2Cl)c2cc(C(=O)c3ccncc3)oc12`, for which, in test [1], the inhibition was determined as 7%. Moreover, the IC50 was determined as 2.41 nM in test [2] and 8.1 nM in test [6]. In addition, the Ratio in test [4] was determined as 0.3.
